Reference: article PMC9648375, “Identification of the first-in-class dual inhibitors of human DNA topoisomerase IIα and indoleamine-2,3-dioxygenase 1 (IDO 1) with strong anticancer properties” (Journal of Enzyme Inhibition and Medicinal Chemistry, 2022)
Converted amounts (≈) assume the structure as drawn. Read-outs that look alike come from different tables or passages of the source.

Columns and labels:
Assay type in all cases: cell-based
[1] = test system: MCF-7 (estrogen-dependent human breast cancer cells); experiment: MTT assay; conditions: MCF7, MCF-7, MTT, read-out: IC50, cytotoxicity
Method: (§1) Therefore, the whole set of compounds were tested by using MTT assay in order to check their overall cytotoxic effect. The growth of cells was monitored after 24 and 48 h of incubation with the increased concentrations (1–100 µg/ml) of the thiosemicarbazide derivatives. […] This confirms that the compounds tested combine different mechanisms of anticancer activity, and DNA topoisomerase II inhibition is only one of them.
(§2) Cytotoxicity of the synthesised compounds were examined against a panel of the cancer cell lines, MCF-7 (estrogen-dependent human breast cancer cells), MDA-MB-231 (oestrogen-independent human breast cancer cells), SCC- 25 (squamous cell carcinoma of the tongue), FaDu (squamous cell carcinoma of the pharynx), A- 549 (human lung carcinoma), AGS (human gastric adenocarcinoma), LS-180, HT-29 (colon cancer cell lines), T98G (glioblastoma cells), A375 (melanoma cells). Human embryonic kidney (HEK-293) cells and human normal skin fibroblasts (CRL-2072) were used as reference cell lines. The investigated cell lines were obtained from American Type Culture Collection (ATCC; Manassas, VA, USA). A375, MCF-7, MDA-MB-231, T98G cells were cultured in Dulbecco’s Modified Eagle’s Medium (DMEM) (Sigma Aldrich, St. Louis, MO, USA) supplemented with 10% heat inactivated foetal bovine serum (FBS), penicillin (100 U/mL), and streptomycin (100 μg/mL). SCC-25 cells were cultured in 1:1 mixture of Dulbecco’s modified Eagle’s medium and Ham’s F12 Medium (Sigma Aldrich, St. Louis, MO, USA) supplemented with 400 ng/ml hydrocortisone, 10% FBS, penicillin (100 U/mL), and streptomycin (100 μg/mL). A549 and AGS cells were maintained in F-12K Medium (Sigma Aldrich, St. Louis, MO, USA). LS-180 and FaDu cells were cultured in Eagle’s Minimum Essential Medium. HT-29 cells were maintained in McCoy’s 5 A Medium (Sigma Aldrich, St. Louis, MO, USA) supplemented with 10%FBS, penicillin (100 U/mL), and streptomycin (100 μg/mL). All the cells were maintained at 37 °C in a humidified atmosphere of 5% CO2.
(§3) The synthesised compounds were dissolved in DMSO in order to obtain stock solutions. At the day of the experiment, the suspension of cells (1 × 10^5 cells/mL) in the respective medium was applied to a 96-well plate at 100 μL per well. […] The control cells were cultured only with a medium containing 2% FBS. Cytotoxicity of DMSO was also checked at concentrations present in respective dilutions of stock solution. After 24 h (or 48 h) of incubation, 15 μL of MTT working solution (5 mg/mL in PBS) was added to each well. The plate was incubated for 3 h. Subsequently, 100 μL of 10% SDS solution was added to each well. Cells were incubated overnight at 37 °C to dissolve the precipitated formazan crystals. The concentration of the dissolved formazan was evaluated by measuring the absorbance at λ = 570 nm, using a microplate reader (Epoch, BioTek Instruments, Inc., Winooski, VT, USA). At least two independent experiments were performed in triplicates. The results of the MTT assay were expressed as mean ± SD. […] IC50 values of the investigated derivatives and standards were calculated using the IC50 calculator.[23]

[2] = test system: A549 (human lung carcinoma); experiment: MTT assay; conditions: read-out: IC50, cytotoxicity
Method: as §1, §2, §3

[3] = test system: LS180 (colon cancer cell line); experiment: MTT assay; conditions: Homo sapiens, read-out: IC50, cytotoxicity
Method: as §1, §2, §3

MTT assay = conditions: human, HEK-293 cells (normal reference cell line), HEK-293 (normal cells), read-out: IC50, cytotoxicity
Method: as §1, §2, §3

[4] = test system: FaDu (squamous cell carcinoma of the pharynx); experiment: MTT assay; conditions: Homo sapiens, read-out: IC50, cytotoxicity
Method: as §1, §2, §3

[5] = test system: HT-29 (colon cancer cell line); experiment: MTT assay; conditions: Homo sapiens, HT-29, MTT, read-out: IC50, cytotoxicity
Method: as §1, §2, §3

[6] = test system: MDA-MB-231 (estrogen-independent human breast cancer cells); experiment: MTT assay; conditions: MDA-MB-231, MTT, read-out: IC50, cytotoxicity
Method: as §1, §2, §3

[7] = test system: AGS (human gastric adenocarcinoma); experiment: MTT assay; conditions: read-out: IC50, cytotoxicity
Method: as §1, §2, §3

[8] = test system: SCC-25 (squamous cell carcinoma of the tongue); experiment: MTT assay; conditions: Homo sapiens, SCC-25, MTT, read-out: IC50, cytotoxicity
Method: as §1, §2, §3

[9] = test system: T98G (glioblastoma cells); experiment: MTT assay; conditions: Homo sapiens, read-out: IC50, cytotoxicity
Method: as §1, §2, §3

A375 (melanoma cells) = experiment: MTT assay; conditions: Homo sapiens, read-out: IC50, cytotoxicity
Method: as §1, §2, §3

SMILES	IC50 ([1]; 24h)	IC50 ([1]; 48h)	IC50 ([2]; 24h)	IC50 ([2]; 48h)	IC50 ([3]; 24h)	IC50 ([3]; 48 h)	IC50 at 24 h (MTT assay)	IC50 at 48 h (MTT assay)	IC50 ([4]; 24h)	IC50 ([4]; 48 h)	IC50 ([5]; 24h)	IC50 ([5]; 48 h)	IC50 ([6]; 24h)	IC50 ([6]; 48h)	IC50 ([7]; 24h)	IC50 ([7]; 48 h)	IC50 ([8]; 24h)	IC50 ([8]; 48 h)	IC50 ([9]; 24h)	IC50 ([9]; 48h)	also measured
CC(C)c1cccc(C(C)C)c1NC(=S)NNC(=O)Cc1cccc2ccccc12 [Compound 1, 4-(2,6-Diisopropylphenyl)-1-[(naphth-1-yl)acetyl]thiosemicarbazide]	9.82 µg/mL (≈ 23.4 µM)	8.45 µg/mL (≈ 20.1 µM)	3.87 µg/mL (≈ 9.22 µM)	2.27 µg/mL (≈ 5.41 µM)	4.57 µg/mL (≈ 10.9 µM)	2.54 µg/mL (≈ 6.05 µM)	17.6 µg/mL (≈ 41.9 µM)	9.61 µg/mL (≈ 22.9 µM)	7.26 µg/mL (≈ 17.3 µM)	2.01 µg/mL (≈ 4.79 µM)	8.96 µg/mL (≈ 21.4 µM)	5.33 µg/mL (≈ 12.7 µM)	9.21 µg/mL (≈ 21.9 µM)	8.04 µg/mL (≈ 19.2 µM)	5.92 µg/mL (≈ 14.1 µM)	2.69 µg/mL (≈ 6.41 µM)	7.06 µg/mL (≈ 16.8 µM)	5.22 µg/mL (≈ 12.4 µM)	6.98 µg/mL (≈ 16.6 µM)	2.27 µg/mL (≈ 5.41 µM)	IC50 (A375 (melanoma cells); A-375, 24h): 4.57 µg/mL (≈ 10.9 µM); IC50 (A375 (melanoma cells); A-375, 48 h): 1.82 µg/mL (≈ 4.34 µM)
O=C(Cc1cccc2ccccc12)NNC(=S)Nc1ccc(N=Nc2ccccc2)cc1 [Compound 2, 4-(4-Phenylazophenyl)-1-[(naphth-1-yl)acetyl]thiosemicarbazide]	9.18 µg/mL (≈ 20.9 µM)	8.85 µg/mL (≈ 20.1 µM)	5.84 µg/mL (≈ 13.3 µM)	5.78 µg/mL (≈ 13.1 µM)	2.87 µg/mL (≈ 6.53 µM)	2.24 µg/mL (≈ 5.1 µM)	15.6 µg/mL (≈ 35.5 µM)	10 µg/mL (≈ 22.8 µM)	2.75 µg/mL (≈ 6.26 µM)	2.54 µg/mL (≈ 5.78 µM)	8.96 µg/mL (≈ 20.4 µM)	5.33 µg/mL (≈ 12.1 µM)	7.64 µg/mL (≈ 17.4 µM)	7.07 µg/mL (≈ 16.1 µM)	5.32 µg/mL (≈ 12.1 µM)	2.96 µg/mL (≈ 6.73 µM)	4.73 µg/mL (≈ 10.8 µM)	3.12 µg/mL (≈ 7.1 µM)	5.53 µg/mL (≈ 12.6 µM)	4.85 µg/mL (≈ 11 µM)	IC50 (A375 (melanoma cells); A-375, 24h): 8.96 µg/mL (≈ 20.4 µM); IC50 (A375 (melanoma cells); A-375, 48 h): 2.47 µg/mL (≈ 5.62 µM)
O=C(NNC(=S)Nc1ccc(N=Nc2ccccc2)cc1)c1ccccc1[N+](=O)[O-] [Compound 3, 4-(4-Phenylazophenyl)-1-(2-nitrobenzoyl)thiosemicarbazide]	7.67 µg/mL (≈ 18.2 µM)	5.48 µg/mL (≈ 13 µM)	5.37 µg/mL (≈ 12.8 µM)	5.13 µg/mL (≈ 12.2 µM)	3.12 µg/mL (≈ 7.42 µM)	2.7 µg/mL (≈ 6.42 µM)	27.5 µg/mL (≈ 65.5 µM)	9.19 µg/mL (≈ 21.9 µM)	2.49 µg/mL (≈ 5.92 µM)	2.18 µg/mL (≈ 5.18 µM)	7.37 µg/mL (≈ 17.5 µM)	3.77 µg/mL (≈ 8.97 µM)	10.5 µg/mL (≈ 24.9 µM)	6.02 µg/mL (≈ 14.3 µM)	5.54 µg/mL (≈ 13.2 µM)	4.31 µg/mL (≈ 10.3 µM)	4.76 µg/mL (≈ 11.3 µM)	3.87 µg/mL (≈ 9.2 µM)	3.35 µg/mL (≈ 7.97 µM)	2.94 µg/mL (≈ 6.99 µM)	IC50 (A375 (melanoma cells); A-375, 24h): 1.8 µg/mL (≈ 4.28 µM); IC50 (A375 (melanoma cells); A-375, 48 h): 0.56 µg/mL (≈ 1.33 µM)
COc1cc([C@@H]2c3cc4c(cc3[C@@H](O[C@@H]3O[C@@H]5CO[C@@H](C)O[C@H]5[C@H](O)[C@H]3O)[C@H]3COC(=O)[C@H]23)OCO4)cc(OC)c1O [Etoposide, etoposide, reference compound]	> 100 µg/mL	6.15 µg/mL (≈ 10.4 µM)	> 100 µg/mL	15.6 µg/mL (≈ 26.5 µM)	> 100 µg/mL	11.7 µg/mL (≈ 19.9 µM)	37.9 µg/mL (≈ 64.3 µM)	29.1 µg/mL (≈ 49.5 µM)	12.5 µg/mL (≈ 21.3 µM)	10.7 µg/mL (≈ 18.2 µM)	94.5 µg/mL (≈ 161 µM)	11.3 µg/mL (≈ 19.2 µM)	> 100 µg/mL	40.3 µg/mL (≈ 68.5 µM)	50.8 µg/mL (≈ 86.3 µM)	29.8 µg/mL (≈ 50.6 µM)	59.1 µg/mL (≈ 100 µM)	23.7 µg/mL (≈ 40.3 µM)	> 100 µg/mL	17.1 µg/mL (≈ 29 µM)	IC50 (A375 (melanoma cells); A-375, 24h): 10.2 µg/mL (≈ 17.3 µM); IC50 (A375 (melanoma cells); A-375, 48 h): 6.48 µg/mL (≈ 11 µM)
